≈ marks a conversion by molar mass, not a printed value. Read-outs that look alike come from different tables or passages of the source.
Experiments:
Plasma stability = format: in vitro ADME; conditions: 3 μM, 37° C.
Experimental: Stability of drug assessed in plasma to determine the percent remaining and half-life of the compound.
Assay Procedure: • 1. Fresh blood was collected in tubes containing anticoagulant (K2 EDTA) and the plasma collected by centrifugation. • 2. 3 mM of the test compound was prepared in DMSO from 20 mM main stock. • 3. 1 μL of test compound (3 mM) was incubated at 37° C. in 999 μL of plasma (3 μM final concentrations, 0.1% DMSO, final volume 1,000 μL). • 4. The reactions were terminated at 0, 30, 60 and 120 min by addition of two volumes of acetonitrile, containing IS (200 ng/mL) resulting in protein precipitation. • 5. After termination of reaction at individual time points, the samples were stored at −80±10° C. till the completion of experiment. • 6. On completion of last incubation point, all the samples were centrifuge at 14,000 rpm for 10 min. • 7. Supernatant (200 μL) from each reaction tube was taken for LC-MS/MS analysis.

DLD-1 cells = assay: Cytotoxicity assay, cell proliferation (Alamar Blue); format: cell-based; conditions: Homo sapiens, 72 h
Experimental: (§1) Media Preparation Protocol:— • Media composition for cell preservation (4 ml): 900 μl of Hi-FBS+[…] of DMSO Complete Media Preparation (500 ml): For DLD1n& A375:
(§2) Cell Culture Protocol:— 1) Protocol for Reviving Cell Line(s) • 1. Take out the cell vials from LN2 container & thaw immediately at 37° C. • 2. Wipe it with 70% alcohol properly • 3. Transfer to sterile centrifuge tubes containing 9 ml media & spin at 1000 rpm for 5 min. • 4. Discard the supernatant & resuspend the pellet in 2-3 ml media and transfer to T-75 or T-150 culture flasks containing 15 or 30 ml media respectively. • 5. Incubate at 37° C.-5% CO2. 2) Protocol for Sub-Culturing Cell Line(s)
(§3) Cells should be sub-cultured when they reach 70-80% confluence. • 1. Discard the media from cell culture flask. • 2. Add 3 to 4 ml of TrypLE Express dissociation solution; keep in CO2 incubator for ˜5 min. Mix gently to avoid cell clumping. • 3. Add 4.0 to 5.0 ml of complete growth medium and mix gently & transfer to centrifuge tube. • 4. Centrifuge at 1000 rpm for 5 min. • 5. Discard the supernatant & re-suspend the pellet in 3-4 ml of media. • 6. Count the cells in cell counter or using hemocytometer. • 7. Split the cells in 1:2 or 1:4 ratio into new culture flasks. • 8. Incubate cultures at 37° C.-5% CO2 to get confluence 3) Protocol for Preserving Cell Line(s) • 1. Discard the spent media from the TC flask. • 2. Add 3 to 4 ml of TrypLE Express dissociation solution; keep in CO2 incubator for ˜5 min. Mix gently to avoid cell clumping. • 3. Add 4.0 to 5.0 ml of complete growth medium and mix gently & transfer to centrifuge tube. • 4. Centrifuge at 1000 rpm for 5 min. • 5. Discard the supernatant & re-suspend the pellet in 3-4 ml of media. • 6. Count the cells in cell counter or using hemocytometer. • 7. Spin at 1000 rpm for 5 min, discard the supernatant and re-suspend the pellet in 900 μl of media+100 μl of DMSO (Freeze app. 1.5 to 3 million cells/vial). • 8. Keep the vials in −80° C. overnight & transfer to LN2 container. Cell Proliferation (Alamar Blue) Assay:— • Seed cells at 2000 cells in 100 μL/well in 96-well tissue culture plate. Leave outer wells without cells for background measurements. Incubate at 37° C./5% CO2 for 16-18 hours. • Add 10× concentration compound dilution or DMSO control so that the final concentration is 1× and DMSO concentration 0.5%. Compound is prepared in 3-fold serial dilutions. Incubate for 72 h at 37° C./5% CO2. • Add Alamar Blue™ reagent to each well with multi-channel pipette and tap gently on each side of the plate to mix. Incubate for 3 hours at 37° C./5% CO2. • Read plates on fluorescence reader (Tecan i-control, 1.11.1.0, Device: infinite 200, Serial number: 810001990) at 540 nm excitation, 590 nm emission wavelength. • Data analysis using Graph pad prism Assay Acceptance Criteria • S/N Ratio should be >3. • Z′ should be >0.4

A375 cells = assay: as above; format: cell-based; conditions: Homo sapiens, A-375, 72 h
Experimental: as §1, §2, §3

[1] = Buffer stability in phosphate buffered saline; format: physicochemical; conditions: PBS pH 7.4, 3 μM, 37° C.
Experimental: Assay Procedure: • 1. Test compound was prepared at 3 mM in DMSO from 10 mM working stock. • 2. The experiment was conducted in Phosphate buffered saline with a final concentration of 3 μM. • 3. The vials were incubated at 37° C. in a hybridization oven for respective time points. • 4. After incubation time, equal volumes of quenching solution was added. • 5. Samples were centrifuged at 14,000 rpm for 5 min at 4° C. • 6. Supernatant was transferred into vials and analyzed in HIPLC.

[2] = Blood partitioning (blood to plasma ratio); format: in vitro ADME; conditions: fresh pooled whole blood, fresh mouse blood, 37° C., read-out: Mice blood to plasma ratio
Experimental: Blood to plasma ratio defines the concentration of a drug in whole blood (that is, target drug containing both erythrocytes and plasma) to the concentration of target drug in plasma. The red blood cell partition coefficient is the ratio of the concentration of drug in the red blood cells (that is, not including plasma) to concentration of drug in plasma.
Assay Procedure: • 1. Fresh blood was collected. • 2. An aliquot of 50 μL blood was taken from individual tubes and centrifuged to check for any haemolysis. Tube with haemolysed blood was not considered for experiment. • 3. Non-haemolysed blood in individual tubes was pooled and incubated at 37° C. • 4. 999 μL aliquot of pooled blood was taken in individual tubes. One of these tubes was designated for Chloroquine (positive control). Incubations for the test compound were similarly done in other aliquot. • 5. 1 μL of test compound (0.1% DMSO concentration) or positive control solution was spiked into each of the above tubes. • 6. Above tubes were incubated at 37° C. for 30 min. • 7. Post incubation, an aliquot (˜50 μL) was taken and centrifuged to check for haemolysis. • 8. Subsequently, 100 μL of blood sample from the incubation mixture tube was transferred into a separate labeled tube and quenched with 200 μL of Acetonitrile containing Internal standard. • 9. […]

[3] = Kinetic solubility across pH (PBS pH 7.4, FaSSGF pH 1.6, FaSSIF pH 6.5); format: physicochemical; conditions: kinetic from dmso stock
Experimental: Kinetic solubility method was used to determine the solubility of NCEs across pH ranges, PBS pH 7.4, FaSSGF pH 1.6 & FaSSIF pH 6.5.
Procedure • 1. Seven calibration standards (i.e. 1, 5, 10, 50, 100, 200 and 300 μM) were prepared in DMSO from the 20 mM primary stock solution. • 2. Dispensed an aliquot of 198 IL of 0.001 M PBS into duplicate wells of a multiscreen solubility filter plate. • 3. Subsequently, added 2 μL of test compound solution (20 mM primary stock solution), cover the plate and shake at 150 rotations per minute for 90 minutes. • 4. At the end of 90 minutes, samples were filtered using MultiScreen HTS vacuum Manifold assembly and the filtrate was collected into the acceptor plate. • 5. An aliquot of 150 μL of filtrate from the above 96-well acceptor plate was transferred into HIPLC vials and analyzed by HIPLC-UV.

MiaPaCa-2 cells = assay: Cytotoxicity assay, cell proliferation (Alamar Blue); format: cell-based; conditions: Homo sapiens, MIA PaCa-2, 72 h
Experimental: as §2, §3

[4] = average of N1 and N2, read-out: Average pIC50 (n = 2) (converted)
[5] = replicate N1, read-out: IC50 N1
[6] = replicate N1, read-out: pIC50 N1 (converted)
[7] = replicate N2, read-out: IC50 N2
[8] = replicate N2, read-out: pIC50 N2 (converted)

Row | SMILES | IC50 (DLD-1 cells; [4]) [nM] | IC50 (DLD-1 cells; [5]) [nM] | IC50 (DLD-1 cells; [6]) [nM] | IC50 (DLD-1 cells; [7]) [nM] | IC50 (DLD-1 cells; [8]) [nM] | IC50 (A375 cells; [4]) [nM] | IC50 (A375 cells; [5]) [nM] | IC50 (A375 cells; [6]) [nM] | IC50 (A375 cells; [7]) [nM] | IC50 (A375 cells; [8]) [nM] | IC50 (MiaPaCa-2 cells; [4]) [nM] | IC50 (MiaPaCa-2 cells; [5]) [nM] | IC50 (MiaPaCa-2 cells; [6]) [nM] | IC50 (MiaPaCa-2 cells; [7]) [nM] | IC50 (MiaPaCa-2 cells; [8]) [nM] | other results
1 | COc1ccc2nc3cc(Cl)ccc3c(NCCOCCN(C)CCOCCNc3c4ccc(Cl)cc4nc4ccc(OC)cc34)c2c1 [Dioxo-DQ-551] | 708 | 330 | 324 | 1560 | 1550 | 794 | 440 | 447 | 1450 | 1450 | 174 | 150 | 151 | 210 | 204 | Mouse plasma stability (% remaining @ 120 min) (Plasma stability): 88%; PBS pH 7.4 stability (% remaining @120 min) [1]: 100%; blood plasma ratio at 30 min [2]: 12.6; solubility at 90 min ([3]; aqueous buffer, PBS pH 7.4, 90 minutes shaking, read-out: PBS pH 7.4 solubility): 39 µM (≈ 26.9 µg/mL); solubility at 90 min ([3]; fassgf or other biorelevant, FaSSGF pH 1.6, 90 minutes shaking, read-out: FaSSGF pH 1.6 solubility): ~200 µM (≈ 138 µg/mL); solubility at 90 min ([3]; FaSSIF pH 6.5, 90 minutes shaking, read-out: FaSSIF pH 6.5 solubility): 62 µM (≈ 42.7 µg/mL)
2 | COc1cccc2c1C(=O)c1c(O)c3c(c(O)c1C2=O)C[C@@](O)(C(=O)CO)C[C@@H]3O[C@H]1C[C@H](N)[C@H](O)[C@H](C)O1 [Doxorubicin] | 380 | 250 | 245 | 590 | 589 | 28.2 | 20 | 24.5 | 30 | 31.6 | 89.1 | 100 | 97.7 | 80 | 81.3 | 
3 | CCN(CC)CCCC(C)Nc1c2ccc(Cl)cc2nc2ccc(OC)cc12 (stereo not drawn) [Quinacrine] | 4370 | 2520 | 2510 | 7540 | 7590 | 2240 | 1280 | 1290 | 3840 | 3800 | 2510 | 2680 | 2690 | 2340 | 2340 | 
